One data set deals with human red blood cells. Description: Hemolytic effect on human red blood cells in vitro (absorbance at 540 nm). The settings on record: 100 μg/mL in PBS, 37° C., 1 h, FIG. 1. The format is cell-based. The procedure: To evaluate the hemolytic effect of the compounds disclosed herein on red blood cells in vitro, human whole blood (100 μL) was taken and mixed with a phosphate buffer. The mixture was centrifuged at 4° C. for 10 min and the supernatant was discarded. The red blood cells were resuspended in PBS buffer (900 μL) and centrifuged at 4° C. for 10 min with the supernatant discarded, and the procedures above were repeated once. The test example compounds were dissolved in 1×PBS buffer to a final concentration of 100 μg/mL. The red blood cells were resuspended in solutions of various test example compounds, an octylphenoxy poly(ethyleneoxy)ethanol-100 solution or PBS buffer, and incubated at 37° C. for 1 h. After incubation, the cells were centrifuged at 4° C. for 10 min and the supernatant (100 μL) was pipetted and transferred to a 96-well plate. The absorbance at 540 nm was detected for evaluating the hemolytic effect of the test example compounds on red blood cells in vitro.

Data set [1] has as its system rat peritoneal mast cells. Description: In vitro histamine release in rat peritoneal mast cells (histamine ELISA). As to conditions: for histamine release levels in rat peritoneal mast cells in vitro relative to etelcalcetide: 10 μM, comparison with etelcalcetide; for Relative fold of histamine release in vitro: test compound final concentration 10 μM, 15 min at 37° C., relative to PBS buffer (1.00). The format is cell-based. An outline of the steps:
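Rat peritoneal mast cells, washed into HBSS + 25 mM HEPES + 1 mM CaCl2 (pH 7.4), were exposed to test compounds at 10 μM final, 48/80 at 4 μg/mL or vehicle for 15 min at 37° C. Histamine released into the supernatant was quantified by ELISA.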

Data set [2] deals with normal rats (Sprague Dawley). Description: In vivo efficacy in normal rat model after a single dose (plasma parathyroid hormone, serum calcium). The settings on record: 3 mg/kg intravenous single dose; for serum calcium level: FIG. 3; for plasma parathyroid hormone level: within 4 h, FIG. 2. The text has this: 3.4 Evaluation of In Vivo Efficacy of Some of the Compounds Disclosed Herein in a Normal Rat Model after a Single Dose 3.4.1 Objective: To Evaluate the Efficacy of the Test Compounds in Reducing Plasma Parathyroid Hormone Levels after a Single Dose in a Normal Rat Model.
SPF normal adult rats (Sprague Dawley, or SD) with weight of 250-350 g were fed with normal diet in an animal room for 7 days. Rats were randomized into groups of 6, half female and half male, and numbered. One day before the start of treatment, 540 μL of blood was collected from each rat, and the plasma parathyroid hormone level and the serum calcium concentration were measured as baseline. The plasma was separated by K2-EDTA anticoagulation. Blood was collected through jugular vein and preserved on ice after collection. The whole blood was centrifuged at 6,800 rpm for 6 minutes at 2-8° C. The supernatant, i.e., the plasma, was collected and preserved at 2-8° C. For serum separation, blood was collected through jugular vein, let stand at room temperature for 1 h, and centrifuged at room temperature at 3,500 rpm for 10 min. The supernatant, i.e., the serum, was collected and preserved at room temperature. The animals were fasted overnight with free access to water the day before treatment. The day after blood sampling, example compounds 13, 17, 31 and etelcalcetide (AMG-416) were dissolved in a phosphate buffered saline (PBS, Gibco). The rats were intravenously administered with example compounds 13, 17, 31 or etelcalcetide 3 mg/kg or an equal volume of PBS buffer. Subsequently, blood samples were collected as per the following procedures for measuring the parameters. 100 μL of blood was collected at 1 h, 2 h and 4 h post-dose, and the plasma was separated according to the procedures above. The plasma parathyroid hormone levels were measured using the Rat Intact PTH ELISA Kit (Quidel—Immunotopics, Cat. #: 60-2500; ELISA: Enzyme-linked immunosorbent assay) according to the kit instructions. The detailed procedures are as follows: using the streptavidin-preplated reaction strips provided in the kit, 25 μL of reference standard, control or plasma samples were added to the wells. Biotinylated rat parathyroid hormone antibody and rat parathyroid hormone/HRP binding antibody were mixed at a ratio of 1:1, and 100 μL of the mixed solution was added to each well. The reaction strip was sealed with a sealing film, wrapped with an aluminum foil for storage in dark, and shaken on a horizontal shaker at room temperature for 3 h at a rotation speed of 220 rpm. The solutions in the wells were discarded. 350 μL of cleaning working solution was added to the wells for washing and then discarded; 5 washes were performed with the same procedures. Finally the wells were dried. To each well was added 150 μL of horseradish peroxidase ELISA substrate. The reaction strip was sealed with a sealing film, wrapped with an aluminum foil for storage in dark, and shaken on a horizontal shaker at room temperature for 30 min at a rotation speed of 180-220 rpm. 100 μL of ELISA terminating solution was added to each well, and the strip was shaken at 180-220 rpm for 1 min on a horizontal shaker at room temperature. The absorbance at 450 nm in each well was detected within 10 min after the addition of the ELISA terminating solution, while the absorbance at 620 nm was subtracted as background. A mixture of horseradish peroxidase ELISA substrate 150 μL and ELISA terminating solution 100 μL was used as the blank control in the absorbance detection. A standard curve according to the absorbance of the reference standard was plotted, and the actual plasma parathyroid hormone concentration was calculated according to the absorbance of other samples and the standard curve. The determination of the serum calcium concentration was conducted according to the procedures of the relevant kit.

For another data set, the system named is 5/6 nephrectomized rats. The data set can be described thus: In vivo efficacy in 5/6 nephrectomized rat model after continuous administration (plasma parathyroid hormone, serum calcium). The source says:
3.5.1 Objective: to evaluate the efficacy of some of the compounds disclosed herein in reducing plasma parathyroid hormone level and serum calcium level after continuous administration in a 5/6 nephrectomized rat model.
The rats were adapted. After anesthesia, ⅔ of the left kidney was surgically resected, and after 1 week of recovery, the right kidney was resected to establish the 5/6 nephrectomized rat model. After the second resection, the animals were normally fed for 2 weeks, tested for creatinine (CREA) and plasma parathyroid hormone level, and randomized as per the parathyroid hormone level into 4 groups of 10, including normal saline group, compound 17—low dose group, compound 17—high dose group and etelcalcetide group. After randomization, the normal saline group, compound 17—low dose group, compound 17—high dose group and etelcalcetide group were respectively administered with 1 dose of normal saline, 1 mg/kg of compound 17, 2 mg/kg of compound 17 and 1 mg/kg of etelcalcetide through the tail vein daily for 28 days. During the treatment period, parameters such as animal weight, plasma parathyroid hormone level and serum calcium were detected. The first day of treatment was taken as day 1.

Each structure is given as a SMILES string. Square brackets hold non-standard residues; d marks the D form. Peptide text beside a SMILES is read from it. * marks the point of attachment. Cys(free,S-linked) = N[C@@H](CS*)C(=O)O; d2Thi = N[C@H](Cc1cccs1)C(=O)O; dAbu = CC[C@@H](N)C(=O)O

Regarding `CC[C@@H](NC(=O)[C@@H](CCCNC(=N)N)NC(=O)[C@@H](CCCNC(=N)N)NC(=O)[C@@H](CSSC[C@H](N)C(=O)O)NC(C)=O)C(=O)N[C@H](CCCNC(=N)N)C(=O)N[C@H](CO)C(=O)N[C@H](CCCNC(=N)N)C(N)=O` [Compound 31, Ac-c(C)-r-r-(D-Abu)-r-s-r-NH2] (Ac-[dC](Cys(free,S-linked))[dR][dR][dAbu][dR][dS][dR]-NH2), the “hemolytic effect on red blood cells” value with human red blood cells was “no significant hemolytic effect”. Besides, in data set [1], the “histamine release levels in rat peritoneal mast cells in vitro relative to etelcalcetide” value is “reduction in histamine release levels” and the “Relative fold of histamine release in vitro” value (“Relative fold” for short) is reported as 1.29. Moreover, in data set [2], the serum calcium level entry is recorded as “corresponding reduction” and the “plasma parathyroid hormone level” value was “completely reduced”.

Turning to `CC(=O)N[C@H](CSSC[C@H](N)C(=O)O)C(=O)N[C@H](CCCNC(=N)N)C(=O)N[C@H](CCCNC(=N)N)C(=O)N[C@H](Cc1cccs1)C(=O)N[C@H](CCCNC(=N)N)C(=O)N[C@H](C)C(=O)N[C@H](CCCNC(=N)N)C(N)=O` [Compound 13, Ac-c(C)-r-r-(D-2-Thi)-r-a-r-NH2] (Ac-[dC](Cys(free,S-linked))[dR][dR][d2Thi][dR][dA][dR]-NH2), the “hemolytic effect on red blood cells” value in the data set on human red blood cells is recorded as “no significant hemolytic effect”. The “Relative fold” value in data set [1] is on record as 2.38. In data set [2], the serum calcium level entry was “corresponding reduction” and the “plasma parathyroid hormone level” value is “completely reduced”.

In the case of `CC[C@@H](NC(=O)[C@@H](CCCNC(=N)N)NC(=O)[C@@H](CCCNC(=N)N)NC(=O)[C@@H](CSSC[C@H](N)C(=O)O)NC(C)=O)C(=O)N[C@H](CCCNC(=N)N)C(=O)N[C@H](C)C(=O)N[C@H](CCCNC(=N)N)C(N)=O` [Compound 17, Ac-c(C)-r-r-(D-Abu)-r-a-r-NH2] (Ac-[dC](Cys(free,S-linked))[dR][dR][dAbu][dR][dA][dR]-NH2), the “plasma parathyroid hormone level compared with the normal saline group” value with 5/6 nephrectomized rats (1 mg/kg and 2 mg/kg daily via tail vein for 28 days) is “reduced the plasma parathyroid hormone level in rats in a dose dependent manner”. Moreover, the “suppression of plasma parathyroid hormone level versus etelcalcetide at the same dose” value in the data set on 5/6 nephrectomized rats (1 mg/kg, 6 h and 16 h post-dose, FIG. 4) is “slightly superior or comparable magnitude to that of etelcalcetide”. For the same molecule, in the data set with 5/6 nephrectomized rats (after administration on days 1, 14 and 28), the serum calcium reduction entry is listed as “reversible serum calcium reduction”. In addition, in the data set with 5/6 nephrectomized rats (day 28), the “persistence to reduce serum calcium levels versus etelcalcetide at the same dose” value is “superior and significantly different”. Further, the “maximal reduction in serum calcium versus etelcalcetide at the same dose” value with 5/6 nephrectomized rats (days 1, 14 and 28, FIG. 5) is on record as “comparable to etelcalcetide”. In the data set on 5/6 nephrectomized rats (minimum of serum calcium on days 14 and 28 compared to day 1), the “extent of serum calcium reduction with the period of treatment” value is “did not increase with the period of treatment”. For the same molecule, in the data set with human red blood cells, the “hemolytic effect on red blood cells” value was “no significant hemolytic effect”. In data set [1], the “histamine release levels in rat peritoneal mast cells in vitro relative to etelcalcetide” value is on record as “reduction in histamine release levels” and the “Relative fold” value is reported as 0.97. In data set [2], the serum calcium level result is “corresponding reduction” and the “plasma parathyroid hormone level” value was “completely reduced”.
